Measured values: patent US20220306695A1, “COMPSTATIN ANALOGUES AND THEIR MEDICAL USES” (priority 2019, published 2022)
Like-named read-outs stand apart in the source and are kept apart here. Starred links: 1 amine or outer side, 2 acyl side, 3 side chain; linkers in the order of their positions; H or OH if unused. Positions of bridges follow the written chain, without caps; N, C: chain ends. Non-standard residues stand in square brackets, D forms with d. Residues, ends and D or L forms follow the SMILES beside them. Groups on a side chain read outwards from the residue. *: point of attachment. Trp(1-Me) = Cn1cc(C[C@H](N)C(=O)O)c2ccccc21; C18 diacid = O=C(O)CCCCCCCCCCCCCCCCC(=O)*; C16 diacid = O=C(O)CCCCCCCCCCCCCCC(=O)*; γGlu = O=C(O)[C@H](CCC(=O)[*:2])N[*:1]; AEEA = NCCOCCOCC(=O)O; Sar = CNCC(=O)O

Assays:
[1] = system: classical complement pathway; assay: In vitro haemolysis assay (inhibition of classical complement pathway); format: cell-based, human
Method in brief: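 Serially diluted compound (9 points) was preincubated 15 min at room temperature with diluted human serum, titrated per batch to give 70-90% maximal haemolysis, in Tris/casein buffer pH 7.4 with Mg2+/Ca2+. Antibody-sensitized sheep erythrocytes were then added for 30 min at 37° C, and the reaction was stopped with EDTA. Haemolysis was read at A405, with IC50 from 4PL fit.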

[2] = Solubility test at 10 mg/mL (visual inspection and light scattering); format: physicochemical; conditions: for Solubility, Condition 1 Acetate pH 4: 10 mg/mL compound in 100 mM acetate pH 4; for Solubility, Condition 2 Acetate pH 5: 10 mg/mL compound in 100 mM acetate pH 5; for Solubility, Condition 3 Phosphate pH 6: 10 mg/mL compound in 100 mM phosphate pH 6; for Solubility, Condition 4 Phosphate pH 7: 10 mg/mL compound in 100 mM phosphate pH 7; for Solubility, Condition 5 Phosphate pH 7.5: 10 mg/mL compound in 100 mM phosphate pH 7.5
[3] = Table 3, human serum, sensitized sheep red blood cells, read-out: IC50[nM], in vitro analysis of inhibition of hemolysis

Row | Structure (SMILES) | IC50 [1, 3] [nM] | Solubility, Condition 1 Acetate pH 4 [2] | Solubility, Condition 2 Acetate pH 5 [2] | Solubility, Condition 3 Phosphate pH 6 [2] | Solubility, Condition 4 Phosphate pH 7 [2] | Solubility, Condition 5 Phosphate pH 7.5 [2] | IC50 ([1]; Table 4, valine 3 versus isoleucine 3 pairs, read-out: CP hemolysis IC50) [nM]
1 | CC[C@H](C)[C@@H]1NC(=O)[C@@H](NC(=O)[C@H](Cc2ccc(O)cc2)NC(=O)[C@H](CCC(=O)O)NC(=O)[C@H](CO)NC(C)=O)CSSC[C@@H](C(=O)N(C)CC(=O)N[C@@H](CCC(=O)O)C(=O)NCC(=O)N[C@@H](CCCCN)C(=O)N[C@@H](CCCCNC(=O)CC[C@H](NC(=O)CNC(=O)CC[C@H](NC(=O)CCCCCCCCCCCCCCCCC(=O)O)C(=O)O)C(=O)O)C(N)=O)NC(=O)[C@H](CCCNC(=N)N)NC(=O)[C@H](Cc2c[nH]cn2)NC(=O)[C@H](CCC(=O)O)NC(=O)CNC(=O)[C@H](Cc2c[nH]c3ccccc23)NC(=O)[C@H](CC(=O)O)NC(=O)[C@H](CCC(N)=O)NC(=O)[C@H](Cc2cn(C)c3ccccc23)NC1=O [Compound 115] (Ac-SEYCI[Trp(1-Me)]QDWGEHRC[Sar]EGKK([γGlu-Gly-γGlu-C18 diacid])-NH2; disulfide 4-14) | < 250 | − (denotes lack of solubility at the given condition, as UV absorbance at 340 nm exceeds 0.1 AU and/or it is visibly turbid or contains particles.) | − (denotes lack of solubility at the given condition, as UV absorbance at 340 nm exceeds 0.1 AU and/or it is visibly turbid or contains particles.) | + (denotes solubility at the given condition, as determined by UV absorbance being less than 0.1 AU at 340 nm and the sample being clear when manually inspected.) | + (denotes solubility at the given condition, as determined by UV absorbance being less than 0.1 AU at 340 nm and the sample being clear when manually inspected.) | + (denotes solubility at the given condition, as determined by UV absorbance being less than 0.1 AU at 340 nm and the sample being clear when manually inspected.) | –
2 | CC[C@H](C)[C@H](NC(=O)[C@H](C)NC(=O)[C@H](CO)NC(=O)[C@H](CO)NC(=O)[C@H](CCC(=O)O)NC(C)=O)C(=O)N[C@H]1CSSC[C@@H](C(=O)N[C@H](C(N)=O)[C@@H](C)O)NC(=O)[C@H](CCCNC(=N)N)NC(=O)[C@H](Cc2c[nH]cn2)NC(=O)[C@H](CCC(=O)O)NC(=O)CNC(=O)[C@H](Cc2c[nH]c3ccccc23)NC(=O)[C@H](CC(=O)O)NC(=O)[C@H](CCC(N)=O)NC(=O)[C@H](Cc2c[nH]c3ccccc23)NC(=O)[C@H]([C@@H](C)CC)NC1=O [Compound 3] (Ac-ESSAICIWQDWGEHRCT-NH2; disulfide 6-16) | < 100 | + (denotes solubility at the given condition, as determined by UV absorbance being less than 0.1 AU at 340 nm and the sample being clear when manually inspected.) | − (denotes lack of solubility at the given condition, as UV absorbance at 340 nm exceeds 0.1 AU and/or it is visibly turbid or contains particles.) | − (denotes lack of solubility at the given condition, as UV absorbance at 340 nm exceeds 0.1 AU and/or it is visibly turbid or contains particles.) | + (denotes solubility at the given condition, as determined by UV absorbance being less than 0.1 AU at 340 nm and the sample being clear when manually inspected.) | + (denotes solubility at the given condition, as determined by UV absorbance being less than 0.1 AU at 340 nm and the sample being clear when manually inspected.) | 69
3 | CC[C@H](C)[C@@H]1NC(=O)[C@@H](NC(=O)[C@H](Cc2ccc(O)cc2)NC(=O)[C@H](C)NC(=O)[C@H](CO)NC(=O)CNC(=O)[C@H](CCC(=O)O)NC(C)=O)CSSC[C@@H](C(=O)N(C)CC(=O)N[C@@H](CCC(=O)O)C(N)=O)NC(=O)[C@H](CCCCNC(=O)COCCOCCNC(=O)COCCOCCNC(=O)CC[C@H](NC(=O)CCCCCCCCCCCCCCC(=O)O)C(=O)O)NC(=O)[C@H](Cc2c[nH]cn2)NC(=O)[C@H](CCC(=O)O)NC(=O)CNC(=O)[C@H](Cc2c[nH]c3ccccc23)NC(=O)[C@H](CC(=O)O)NC(=O)[C@H](CCC(N)=O)NC(=O)[C@H](Cc2cn(C)c3ccccc23)NC1=O [Compound 103, Ac-EGSAYC(1)I[1-Me-Trp]QDWGEH-[K([15-carboxy-pentadecanoyl][γGlu][Peg3][Peg3])]-C(1)[Sar]E-NH2] (Ac-EGSAYCI[Trp(1-Me)]QDWGEHK([AEEA-AEEA-γGlu-C16 diacid])C[Sar]E-NH2; disulfide 6-16) | < 100 | − (denotes lack of solubility at the given condition, as UV absorbance at 340 nm exceeds 0.1 AU and/or it is visibly turbid or contains particles.) | + (denotes solubility at the given condition, as determined by UV absorbance being less than 0.1 AU at 340 nm and the sample being clear when manually inspected.) | + (denotes solubility at the given condition, as determined by UV absorbance being less than 0.1 AU at 340 nm and the sample being clear when manually inspected.) | + (denotes solubility at the given condition, as determined by UV absorbance being less than 0.1 AU at 340 nm and the sample being clear when manually inspected.) | + (denotes solubility at the given condition, as determined by UV absorbance being less than 0.1 AU at 340 nm and the sample being clear when manually inspected.) | –
4 | CC[C@H](C)[C@@H]1NC(=O)[C@@H](NC(=O)[C@H](Cc2ccc(O)cc2)NC(=O)[C@H](C)NC(=O)[C@H](CO)NC(=O)CNC(=O)[C@H](CCC(=O)O)NC(C)=O)CSSC[C@@H](C(=O)N(C)CC(=O)N[C@@H](CCC(=O)O)C(=O)NCC(=O)N[C@@H](CCC(=O)O)C(=O)N[C@@H](CCCCNC(=O)CC[C@H](NC(=O)CNC(=O)CC[C@H](NC(=O)CCCCCCCCCCCCCCCCC(=O)O)C(=O)O)C(=O)O)C(N)=O)NC(=O)[C@H](CCCNC(=N)N)NC(=O)[C@H](Cc2c[nH]cn2)NC(=O)[C@H](CCC(=O)O)NC(=O)CNC(=O)[C@H](Cc2c[nH]c3ccccc23)NC(=O)[C@H](CC(=O)O)NC(=O)[C@H](CCC(N)=O)NC(=O)[C@H](Cc2cn(C)c3ccccc23)NC1=O [Compound 109] (Ac-EGSAYCI[Trp(1-Me)]QDWGEHRC[Sar]EGEK([γGlu-Gly-γGlu-C18 diacid])-NH2; disulfide 6-16) | < 250 | − (denotes lack of solubility at the given condition, as UV absorbance at 340 nm exceeds 0.1 AU and/or it is visibly turbid or contains particles.) | + (denotes solubility at the given condition, as determined by UV absorbance being less than 0.1 AU at 340 nm and the sample being clear when manually inspected.) | + (denotes solubility at the given condition, as determined by UV absorbance being less than 0.1 AU at 340 nm and the sample being clear when manually inspected.) | + (denotes solubility at the given condition, as determined by UV absorbance being less than 0.1 AU at 340 nm and the sample being clear when manually inspected.) | + (denotes solubility at the given condition, as determined by UV absorbance being less than 0.1 AU at 340 nm and the sample being clear when manually inspected.) | –
